US12187742B2 (XRAD Therapeutics, Inc., priority 2018, dated 2025)
pIC50: −log10 of the molar value. Structures can show the parent of a compound that is named as a salt.

Each compound was assayed against ATM (Homo sapiens (Human), UniProt Q13315) (assay: ATM in Cell Western Assay (pKAP1 in etoposide-treated MCF-7 cells)). Conditions: MCF-7 cells, etoposide 100 μM, 1 hr, pKAP1 readout.
Type: cell-based
Method: Assay of Compounds ATM and DNA-PK Inhibition
ATM in Cell Western Assay:
Next day, add corresponding concentration of compounds using pin tool (Echo 550), the final top concentration is 1 μM, 3-fold series dilution, total 10 doses. Then add etoposide (Sigma, #E1383) to a final concentration of 100 μM. Incubate at 37° C. for 1 hr. Fix cells by adding 25 μL of fixing solution (8% paraformaldehyde) for 20 minutes at ambient temperature. Permeabilize cells for 5 washes with 1×PBS (phosphate buffered saline) containing 0.1% Triton X-100; each wash is for 5 minutes. […] The next day, wash the plate 5 times with 1×PBST (1×PBS containing 0.1% Tween-20). […] Wash the cells for 5 times with 1×PBST (1×PBS containing 0.1% Tween-20) at ambient temperature, using gentle shaking in the dark. After the last wash
remove wash solution, turn plate upside down onto a thin paper towel and centrifuge at 1000 rpm for 1 min to absorb all wash buffer. Clean the bottom of plate with moist lint free paper. Scan plate immediately using ODYSSEY CLx (LI-COR) for the best results.

ATM, sequence (Q13315 whole entry): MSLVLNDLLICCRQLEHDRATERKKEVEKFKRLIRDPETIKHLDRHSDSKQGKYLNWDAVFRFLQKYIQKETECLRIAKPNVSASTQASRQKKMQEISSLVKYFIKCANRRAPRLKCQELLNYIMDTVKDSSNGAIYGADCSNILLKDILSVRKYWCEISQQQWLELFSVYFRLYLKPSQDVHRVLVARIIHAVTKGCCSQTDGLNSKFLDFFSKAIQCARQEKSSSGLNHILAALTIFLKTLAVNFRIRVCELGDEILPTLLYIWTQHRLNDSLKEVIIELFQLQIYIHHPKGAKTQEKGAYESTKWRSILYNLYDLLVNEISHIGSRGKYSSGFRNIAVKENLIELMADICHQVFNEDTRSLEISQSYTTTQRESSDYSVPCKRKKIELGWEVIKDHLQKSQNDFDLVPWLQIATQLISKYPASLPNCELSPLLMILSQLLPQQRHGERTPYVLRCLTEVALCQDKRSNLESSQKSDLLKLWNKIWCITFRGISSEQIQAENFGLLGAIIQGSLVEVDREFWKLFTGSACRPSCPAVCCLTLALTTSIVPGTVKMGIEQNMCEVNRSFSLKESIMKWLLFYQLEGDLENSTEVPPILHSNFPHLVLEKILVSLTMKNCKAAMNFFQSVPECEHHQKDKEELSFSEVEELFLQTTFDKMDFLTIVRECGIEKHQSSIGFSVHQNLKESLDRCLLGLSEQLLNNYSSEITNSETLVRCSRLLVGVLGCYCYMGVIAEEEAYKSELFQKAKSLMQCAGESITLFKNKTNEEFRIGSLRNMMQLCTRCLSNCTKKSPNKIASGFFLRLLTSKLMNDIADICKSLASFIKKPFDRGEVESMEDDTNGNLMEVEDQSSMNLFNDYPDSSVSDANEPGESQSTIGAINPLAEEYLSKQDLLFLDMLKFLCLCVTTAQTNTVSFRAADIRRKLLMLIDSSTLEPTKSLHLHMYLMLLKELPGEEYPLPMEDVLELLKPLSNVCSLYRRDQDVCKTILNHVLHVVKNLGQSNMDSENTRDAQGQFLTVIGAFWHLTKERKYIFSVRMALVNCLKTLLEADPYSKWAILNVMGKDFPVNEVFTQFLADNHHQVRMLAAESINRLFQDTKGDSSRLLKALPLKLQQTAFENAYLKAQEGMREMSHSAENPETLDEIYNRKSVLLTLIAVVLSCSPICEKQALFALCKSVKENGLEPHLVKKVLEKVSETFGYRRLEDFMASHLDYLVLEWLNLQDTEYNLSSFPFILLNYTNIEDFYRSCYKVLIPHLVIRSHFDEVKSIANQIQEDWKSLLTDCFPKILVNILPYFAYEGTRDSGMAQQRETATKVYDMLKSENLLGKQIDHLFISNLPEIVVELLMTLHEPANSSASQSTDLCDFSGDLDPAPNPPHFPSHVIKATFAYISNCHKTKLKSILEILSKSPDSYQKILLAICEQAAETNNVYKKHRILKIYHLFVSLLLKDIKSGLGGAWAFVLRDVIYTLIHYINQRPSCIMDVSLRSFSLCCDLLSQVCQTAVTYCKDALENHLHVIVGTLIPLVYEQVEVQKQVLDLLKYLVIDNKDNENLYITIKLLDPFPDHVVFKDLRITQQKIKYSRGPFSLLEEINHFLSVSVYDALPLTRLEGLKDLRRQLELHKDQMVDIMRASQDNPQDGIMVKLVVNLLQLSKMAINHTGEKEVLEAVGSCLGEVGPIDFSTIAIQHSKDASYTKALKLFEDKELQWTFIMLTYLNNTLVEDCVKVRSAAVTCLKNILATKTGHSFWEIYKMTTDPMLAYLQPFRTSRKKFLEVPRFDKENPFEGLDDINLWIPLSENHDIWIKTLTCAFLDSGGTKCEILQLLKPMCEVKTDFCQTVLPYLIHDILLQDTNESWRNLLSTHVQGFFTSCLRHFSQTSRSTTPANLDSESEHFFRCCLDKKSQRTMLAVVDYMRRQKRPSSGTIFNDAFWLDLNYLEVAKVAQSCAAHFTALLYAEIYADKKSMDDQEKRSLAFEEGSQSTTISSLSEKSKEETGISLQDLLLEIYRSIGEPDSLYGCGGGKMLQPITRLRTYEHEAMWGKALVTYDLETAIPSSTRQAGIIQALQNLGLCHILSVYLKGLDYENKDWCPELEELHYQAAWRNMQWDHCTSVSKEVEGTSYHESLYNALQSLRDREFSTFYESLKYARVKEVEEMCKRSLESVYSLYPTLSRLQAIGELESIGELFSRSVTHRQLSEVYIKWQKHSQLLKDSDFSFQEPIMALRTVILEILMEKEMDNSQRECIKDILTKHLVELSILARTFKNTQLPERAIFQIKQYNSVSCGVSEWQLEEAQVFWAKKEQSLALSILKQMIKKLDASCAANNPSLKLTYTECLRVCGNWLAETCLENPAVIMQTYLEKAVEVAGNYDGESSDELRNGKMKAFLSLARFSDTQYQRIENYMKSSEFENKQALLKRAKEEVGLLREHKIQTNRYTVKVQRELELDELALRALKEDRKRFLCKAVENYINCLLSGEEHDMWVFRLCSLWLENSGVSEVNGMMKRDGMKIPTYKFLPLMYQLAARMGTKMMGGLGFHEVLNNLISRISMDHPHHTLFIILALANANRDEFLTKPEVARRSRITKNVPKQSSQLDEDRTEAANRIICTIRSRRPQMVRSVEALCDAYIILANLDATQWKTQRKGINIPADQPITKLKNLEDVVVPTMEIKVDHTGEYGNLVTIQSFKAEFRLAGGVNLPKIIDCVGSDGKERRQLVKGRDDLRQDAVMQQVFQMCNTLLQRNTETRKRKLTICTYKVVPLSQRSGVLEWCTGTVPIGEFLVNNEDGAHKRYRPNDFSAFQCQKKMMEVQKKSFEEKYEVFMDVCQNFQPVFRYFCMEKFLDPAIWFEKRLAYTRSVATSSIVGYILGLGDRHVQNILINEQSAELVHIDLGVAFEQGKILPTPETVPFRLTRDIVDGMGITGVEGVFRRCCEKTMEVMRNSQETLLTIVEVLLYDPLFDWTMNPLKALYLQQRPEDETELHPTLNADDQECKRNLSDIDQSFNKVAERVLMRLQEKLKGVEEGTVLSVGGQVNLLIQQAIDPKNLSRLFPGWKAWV

pIC50	Compound
< 7.00	CN1C(=O)C2(CC2)c2c1cnc1ccc(-c3ccc4nccnc4c3)cc21 [Example 39, 3′-Methyl-8′-(quinoxalin-6-yl)spiro[cyclopropane-1,1′-pyrrolo[2,3-c]quinolin]-2′(3′-H)-one]
7.00 to 9.00	CN1C(=O)C2(CCC2)c2c1cnc1ccc(-c3cnc(CCCCN4CCCCC4)c(NS(C)(=O)=O)c3)cc21 [Example 269, N-(5-(3′-Methyl-2′-oxo-2′,3′-dihydrospiro[cyclobutane-1,1′-pyrrolo[2,3-c]quinolin]-8′-yl)-2-(4-(piperidin-1-yl)butyl)pyridin-3-yl)methanesulfonamide]
< 7.00	CN(C)CCOCc1ncc(-c2ccc3ncc4c(c3c2)C2(CCC2)C(=O)N4C)cc1NS(C)(=O)=O [Example 265, N-(2-((2-(Dimethylamino)ethoxy)methyl)-5-(3′-methyl-2′-oxo-2′,3′-dihydrospiro [cyclobutane-1,1′-pyrrolo[2,3-c]quinolin]-8′-yl)pyridin-3-yl)methanesulfonamide]
< 7.00	COc1ncc(-c2ccc3ncc4c(c3c2)C2(CC2)C(=O)N4Cc2cn[nH]c2)cc1NS(=O)(=O)c1ccccc1 [Example 11, N-(5-(3′-((1H-Pyrazol-4-yl)methyl)-2′-oxo-2′,3′-dihydrospiro[cyclopropane-1,1′-pyrrolo[2,3-c]quinolin]-8′-yl)-2-methoxypyridin-3-yl) benzenesulfonamide]
< 7.00	CN(C)CCCOc1ncc(-c2ccc3ncc4c(c3c2)C2(CC2)C(=O)N4C)cc1C(N)=O [Example 52, 2-(3-(Dimethylamino)propoxy)-5-(3′-methyl-2′-oxo-2′,3′-dihydrospiro[cyclopropane-1,1′-pyrrolo[2,3-c]quinolin]-8′-yl)nicotinamide]
< 7.00	CN1CC(COc2ncc(-c3ccc4ncc5c(c4c3)C3(CC3)C(=O)N5C)cc2NS(=O)(=O)c2ccccc2)C1 [Example 110, N-(5-(3′-Methyl-2′-oxo-2′,3′-dihydrospiro[cyclopropane-1,1′-pyrrolo[2,3-c]quinolin]-8′-yl)-2-((1-methylazetidin-3-yl)methoxy)pyridin-3-yl)benzenesulfonamide]
7.00 to 9.00	CCN(C)C1CN(c2ncc(-c3cc4c5c(cnc4cc3F)N(C)C(=O)C53CCC3)cc2NS(C)(=O)=O)C1 [Example 313, N-(2-(3-(Ethyl(methyl)amino)azetidin-1-yl)-5-(7′-fluoro-3′-methyl-2′-oxo-2′,3′-dihydrospiro[cyclobutane-1,1′-pyrrolo[2,3-c]quinolin]-8′-yl)pyridin-3-yl)methanesulfonamide hydrochloride]
7.00 to 9.00	CC(C)NC1CN(c2ncc(-c3cc4c5c(cnc4cc3F)N(C)C(=O)C53CCC3)cc2NS(C)(=O)=O)C1 [Example 328, N-(5-(7′-Fluoro-3′-methyl-2′-oxo-2′,3′-dihydrospiro[cyclobutane-1,1′-pyrrolo[2,3-c]quinolin]-8′-yl)-2-(3-(isopropylamino)azetidin-1-yl)pyridin-3-yl)methanesulfonamide hydrochloride]
< 7.00	COc1ncc(-c2ccc3ncc4c(c3c2)C2(CC2)C(=O)N4C)cc1CS(=O)(=O)c1ccc(C)nc1 [Example 209, 8′-(6-Methoxy-5-(((6-methylpyridin-3-yl)sulfonyl)methyl)pyridin-3-yl)-3′-methylspiro[cyclopropane-1,1′-pyrrolo[2,3-c]quinolin]-2′(3′-H)-one]
< 7.00	CN1C(=O)C2(CCC2)c2c1cnc1ccc(-c3cnc(N4CCS(=N)(=O)CC4)c(NS(=O)(=O)c4ccccc4)c3)cc21 (racemic) [Example 138, rac-N-(2-(1-Imino-1-oxido-1λ^6-thiomorpholino)-5-(3′-methyl-2′-oxo-2′,3′-dihydrospiro[cyclobutane-1,1′-pyrrolo[2,3-c]quinolin]-8′-yl)pyridin-3-yl)benzenesulfonamide hydrochloride]
< 7.00	COc1ncc(-c2ccc3ncc4c(c3c2)C2(CC2)C(=O)N4CC2COC2)cc1NS(=O)(=O)c1ccccc1 [Example 17, N-(2-Methoxy-5-(3 (oxetan-3-ylmethyl)-2′-oxo-2′,3′-dihydrospiro[cyclopropane-1,1′-pyrrolo[2,3-c]quinolin]-8′-yl)pyridin-3-yl)benzenesulfonamide]

Same assay, conditions: pKAP1 in etoposide-treated MCF-7 cells

pIC50	Compound
7.00 to 9.00	CCN1C(=O)C2(CCC2)c2c1cnc1ccc(-c3cnc(N4CC(N(C)C)C4)c(NS(=O)(=O)c4ccccc4)c3)cc21 [Example 337, N-(2-(3-(Dimethylamino)azetidin-1-yl)-5-(3′-ethyl-2′-oxo-2′,3′-dihydrospiro[cyclobutane-1,1′-pyrrolo[2,3-c]quinolin]-8′-yl)pyridin-3-yl)benzenesulfonamide]
7.00 to 9.00	CC(C)NCCOc1ncc(-c2cc3c(cc2F)ncc2c3[C@]3(C[C@@H](Cc4ccccc4)C3)C(=O)N2C)cc1NS(C)(=O)=O [Example 450, trans-N-(5-(3-Benzyl-7-fluoro-3′-methyl-2′-oxo-2′,3′-dihydrospiro [cyclobutane-1,1′-pyrrolo[2,3-c]quinolin]-8′-yl)-2-(2-(isopropylamino)ethoxy)pyridin-3-yl)methanesulfonamide]
7.00 to 9.00	CC(C)NCCOc1ncc(-c2cc3c(cc2F)ncc2c3[C@]3(C[C@H](N(C)C)C3)C(=O)N2C)cc1NS(C)(=O)=O [Example 465, cis-N-(5-(3-(Dimethylamino)-7′-fluoro-3′-methyl-2′-oxo-2′,3′-dihydrospiro[cyclobutane-1,1′-pyrrolo[2,3-c]quinolin]-8′-yl)-2-(2-(isopropylamino)ethoxy)pyridin-3-yl)methanesulfonamide]
7.00 to 9.00	CC(C)NCCOc1ncc(-c2cc3c(cc2F)ncc2c3[C@]3(C[C@@H](C(C)(C)O)C3)C(=O)N2C)cc1NS(C)(=O)=O [Example 457, trans-N-(5-(7′-Fluoro-3-(2-bydroxypropan-2-yl)-3′-methyl-2′-oxo-2′,3′-dihydrospiro[cyclobutane-1,1′-pyrrolo[2,3-c]quinolin]-8′-yl)-2-(2-(isopropylamino)ethoxy)pyridin-3-yl)methanesulfonamide]
< 7.00	CNC[C@H]1C[C@]2(C1)C(=O)N(C)c1cnc3cc(F)c(-c4cnc(OCCNC(C)C)c(NS(C)(=O)=O)c4)cc3c12 [Example 454, cis-N-(5-(7′-Fluoro-3′-methyl-3-((methylamino)methyl)-2′-oxo-2′,3′-dihydrospiro[cyclobutane-1,1′-pyrrolo[2,3-c]quinolin]-8′-yl)-2-(2-(isopropylamino)ethoxy)pyridin-3-yl)methanesulfonamide]
< 7.00	CC(C)NCCOc1ncc(-c2cc3c4c(cnc3cc2F)N(C)C(=O)C42CCC2)cc1NS(=O)(=O)N1CC(C#N)C1 [Example 372, 3-Cyano-N-(5-(7′-fluoro-3′-methyl-2′-oxo-2′,3′-dihydrospiro[cyclobutane-1,1′-pyrrolo[2,3-c]quinolin]-8′-yl)-2-(2-(isopropylamino)ethoxy)pyridin-3-yl)azetidine-1-sulfonamide]
7.00 to 9.00	CC(C)NCCOc1ncc(-c2cc3c4c(cnc3cc2F)N(C)C(=O)C42CC(F)C2)cc1NS(C)(=O)=O (stereo not drawn) [Example 560, cis-N-(5-(3,7′-Difluoro-3′-methyl-2′-oxo-2′,3′-dihydrospiro[cyclobutane-1,1′-pyrrolo[2,3-c]quinolin]-8′-yl)-2-(2-(isopropylamino)ethoxy)pyridin-3-yl)methanesulfonamide]
7.00 to 9.00	CN(C)CCCOc1ncc(-c2ccc3ncc4c(c3c2)C2(CN(C(=O)OC(C)(C)C)C2)C(=O)N4C)cc1NS(C)(=O)=O [Example 479, tert-Butyl 8′-(6-(3-(dimethylamino)propoxy)-5-(methylsulfonamido)pyridin-3-yl)-3′-methyl-2′-oxo-2′,3′-dihydrospiro[azetidine-3,1′-pyrrolo[2,3-c]quinoline]-1-carboxylate]
7.00 to 9.00	CC(C)NCCOc1ncc(-c2cc3c(cc2F)ncc2c3[C@]3(C[C@@H](COC(C)C)C3)C(=O)N2C)cc1NS(C)(=O)=O [Example 411, trans-N-{5-(7′-Fluoro-3-(isopropoxymethyl)-3′-methyl-2′-oxo-2′,3′-dihydrospiro[cyclobutane-1,1′-pyrrolo[2,3-c]quinolin]-8′-yl)-2-(2-(isopropylamino)ethoxy)pyridin-3-yl)methanesulfonamide]
< 7.00	CN1C(=O)C2(CCC2)c2c1cnc1ccc(-c3cnc(N4CC5CC(C4)N5C(=O)OC(C)(C)C)c(NS(C)(=O)=O)c3)cc21 [Example 359, tert-Butyl 3-(5-(3′-methyl-2′-oxo-2′,3′-dihydrospiro [cyclobutane-1,1′-pyrrolo[2,3-c]quinolin]-8′-yl)-3-(methylsulfonamido)pyridin-2-yl)-3,6-diazabicydo[3.1.1] heptane-6-carboxylate]
< 7.00	CC(=O)N1CC2(C1)C(=O)N(C)c1cnc3cc(F)c(-c4cnc(OCCNC(C)C)c(NS(C)(=O)=O)c4)cc3c12 [Example 511, N-(5-(1-Acetyl-7′-fluoro-3′-methyl-2′-oxo-2′,3′-dihydrospiro[azetidine-3,1′-pyrrolo[2,3-c]quinolin]-8′-yl)-2-(2-(isopropylamino)ethoxy)pyridin-3-yl)methanesulfonamide]
7.00 to 9.00	CC(C)NCCOc1ncc(-c2cc3c4c(cnc3cc2F)N(C)C(=O)C42CN(C3CCOCC3)C2)cc1NS(C)(=O)=O [Example 500, N-(5-(7′-Fluoro-3′-methyl-2′-oxo-1-(tetrahydro-2H-pyran-4-yl)-2′,3′-dihydrospiro[azetidine-3,1′-pyrrolo[2,3-c]quinolin]-8′-yl)-2-(2-(isopropylamino)ethoxy)pyridin-3-yl)methanesulfonamide hydrochloride]
